Tests used:
rat = experiment: Open cage schedule-fed rat model, food intake; assay type: in vivo; details: for Feed. Inhib. rat [Response 3 h]: response at 3 h
CYP2C9 = CYP2C9 (Homo sapiens, UniProt P11712); experiment: CYP2C9 inhibition; assay type: in vitro ADME; details: read-out: CYP2C9inh [IC50]
Human H3 = Human H3 (Homo sapiens, UniProt Q9Y5N1); experiment: Functional assay II, human H3 GTPγS; assay type: biochemical; details: read-out: hH3-GTPgS) [Ki]
hERG = hERG (Homo sapiens, UniProt Q12809); experiment: Herg-binding (3H-Astemizol); details: probe 3H-astemizole
Chain of hERG (Q12809 whole entry): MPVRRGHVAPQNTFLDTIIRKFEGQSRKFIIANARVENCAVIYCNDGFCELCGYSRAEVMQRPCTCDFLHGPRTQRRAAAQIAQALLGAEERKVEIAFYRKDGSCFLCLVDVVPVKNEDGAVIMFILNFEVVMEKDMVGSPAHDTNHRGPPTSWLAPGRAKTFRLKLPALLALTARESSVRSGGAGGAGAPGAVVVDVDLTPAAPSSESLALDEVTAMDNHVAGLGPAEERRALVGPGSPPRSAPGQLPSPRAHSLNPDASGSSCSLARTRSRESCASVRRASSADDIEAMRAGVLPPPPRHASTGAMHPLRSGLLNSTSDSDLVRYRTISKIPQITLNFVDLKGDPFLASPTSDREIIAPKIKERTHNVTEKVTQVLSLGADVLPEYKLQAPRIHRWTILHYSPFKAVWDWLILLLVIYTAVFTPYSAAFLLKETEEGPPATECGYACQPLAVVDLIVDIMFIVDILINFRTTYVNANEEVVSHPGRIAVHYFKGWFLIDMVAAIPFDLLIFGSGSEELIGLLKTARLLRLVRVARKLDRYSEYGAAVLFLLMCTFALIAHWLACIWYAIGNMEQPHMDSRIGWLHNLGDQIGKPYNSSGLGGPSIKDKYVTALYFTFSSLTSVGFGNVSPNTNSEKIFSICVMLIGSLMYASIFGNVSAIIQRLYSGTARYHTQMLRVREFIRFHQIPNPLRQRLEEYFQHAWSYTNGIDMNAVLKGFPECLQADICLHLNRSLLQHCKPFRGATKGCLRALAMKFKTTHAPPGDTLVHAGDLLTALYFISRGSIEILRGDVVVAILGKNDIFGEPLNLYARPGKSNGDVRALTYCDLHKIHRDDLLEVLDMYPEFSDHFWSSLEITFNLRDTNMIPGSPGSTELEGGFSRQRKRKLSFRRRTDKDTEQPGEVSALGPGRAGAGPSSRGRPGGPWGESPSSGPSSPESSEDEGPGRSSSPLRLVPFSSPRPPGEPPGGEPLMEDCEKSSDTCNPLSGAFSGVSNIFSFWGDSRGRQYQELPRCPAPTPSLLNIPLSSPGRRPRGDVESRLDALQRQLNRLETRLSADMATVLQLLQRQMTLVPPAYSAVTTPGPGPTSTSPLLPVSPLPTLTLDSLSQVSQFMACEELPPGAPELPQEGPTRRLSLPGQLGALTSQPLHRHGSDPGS

CYP1A = target: T1, CYP1A (Homo sapiens, UniProt P05177); experiment: CYP1A inhibition
T1 sequence (P05177 2-516): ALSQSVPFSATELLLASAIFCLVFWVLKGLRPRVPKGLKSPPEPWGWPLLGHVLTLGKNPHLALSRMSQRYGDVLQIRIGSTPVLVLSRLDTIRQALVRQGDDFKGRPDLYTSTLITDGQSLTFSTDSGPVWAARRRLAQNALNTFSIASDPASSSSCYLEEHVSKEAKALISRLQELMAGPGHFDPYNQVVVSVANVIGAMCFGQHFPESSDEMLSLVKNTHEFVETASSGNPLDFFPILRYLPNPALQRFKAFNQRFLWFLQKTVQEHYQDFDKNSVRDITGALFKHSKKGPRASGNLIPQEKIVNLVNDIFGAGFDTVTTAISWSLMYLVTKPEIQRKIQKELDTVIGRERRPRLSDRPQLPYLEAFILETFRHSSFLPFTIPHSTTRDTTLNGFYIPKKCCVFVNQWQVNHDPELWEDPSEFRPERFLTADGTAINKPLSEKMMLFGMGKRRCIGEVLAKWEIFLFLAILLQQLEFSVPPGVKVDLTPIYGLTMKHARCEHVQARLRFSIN

CYP3A4 = CYP3A4 (Homo sapiens, UniProt P08684); experiment: CYP3A4 inhibition; assay type: in vitro ADME; details: read-out: CYP3A4inh [IC50]
Chain of CYP3A4 (P08684 whole entry): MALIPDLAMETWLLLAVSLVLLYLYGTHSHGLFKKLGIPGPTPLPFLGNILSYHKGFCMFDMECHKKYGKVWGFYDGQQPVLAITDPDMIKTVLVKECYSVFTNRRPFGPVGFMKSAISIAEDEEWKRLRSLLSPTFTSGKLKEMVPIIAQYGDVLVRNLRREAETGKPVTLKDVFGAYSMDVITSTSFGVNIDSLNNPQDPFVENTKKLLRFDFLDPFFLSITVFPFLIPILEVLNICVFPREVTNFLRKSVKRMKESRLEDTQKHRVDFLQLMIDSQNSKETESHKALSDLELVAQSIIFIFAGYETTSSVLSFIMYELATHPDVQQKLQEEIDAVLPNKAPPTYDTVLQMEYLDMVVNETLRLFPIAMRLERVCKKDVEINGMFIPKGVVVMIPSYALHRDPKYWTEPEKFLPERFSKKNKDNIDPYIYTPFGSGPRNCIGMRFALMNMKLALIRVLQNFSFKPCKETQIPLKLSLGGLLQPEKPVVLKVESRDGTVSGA

CYP2D6 = CYP2D6 (Homo sapiens, UniProt P10635); experiment: CYP2D6 inhibition; assay type: in vitro ADME; details: read-out: CYP2D6inh [IC50]
Chain of CYP2D6 (P10635 whole entry): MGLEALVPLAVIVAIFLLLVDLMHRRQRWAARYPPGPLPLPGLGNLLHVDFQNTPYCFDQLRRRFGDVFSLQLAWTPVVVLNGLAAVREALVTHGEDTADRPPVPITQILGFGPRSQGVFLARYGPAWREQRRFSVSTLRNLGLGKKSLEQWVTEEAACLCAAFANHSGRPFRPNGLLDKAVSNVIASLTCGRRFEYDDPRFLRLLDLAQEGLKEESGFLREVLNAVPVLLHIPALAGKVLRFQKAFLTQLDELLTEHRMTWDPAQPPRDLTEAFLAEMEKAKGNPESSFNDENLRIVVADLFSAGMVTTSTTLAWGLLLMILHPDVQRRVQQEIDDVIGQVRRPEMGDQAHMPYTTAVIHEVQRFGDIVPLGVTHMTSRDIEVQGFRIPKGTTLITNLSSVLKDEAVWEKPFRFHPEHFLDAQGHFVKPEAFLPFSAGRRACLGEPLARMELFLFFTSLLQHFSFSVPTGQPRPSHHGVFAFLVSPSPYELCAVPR

CYP2C19 = CYP2C19 (Homo sapiens, UniProt P33261); experiment: CYP2C19 inhibition; assay type: in vitro ADME; details: read-out: CYP2C19inh [IC50]
Chain of CYP2C19 (P33261 whole entry): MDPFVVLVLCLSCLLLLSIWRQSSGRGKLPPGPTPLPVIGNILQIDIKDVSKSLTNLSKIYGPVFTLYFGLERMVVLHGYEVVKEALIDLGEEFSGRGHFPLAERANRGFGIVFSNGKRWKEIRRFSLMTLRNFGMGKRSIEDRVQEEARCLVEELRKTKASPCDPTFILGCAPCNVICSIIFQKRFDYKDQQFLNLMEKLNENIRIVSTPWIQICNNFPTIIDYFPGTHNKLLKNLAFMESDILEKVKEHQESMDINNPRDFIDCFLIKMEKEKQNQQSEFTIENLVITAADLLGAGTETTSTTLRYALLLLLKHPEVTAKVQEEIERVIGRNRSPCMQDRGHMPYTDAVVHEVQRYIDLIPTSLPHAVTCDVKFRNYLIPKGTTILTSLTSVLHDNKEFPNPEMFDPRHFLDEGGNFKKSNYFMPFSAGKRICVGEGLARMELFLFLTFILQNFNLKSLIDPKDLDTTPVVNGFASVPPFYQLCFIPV

Chain of Human H3 (Q9Y5N1 whole entry): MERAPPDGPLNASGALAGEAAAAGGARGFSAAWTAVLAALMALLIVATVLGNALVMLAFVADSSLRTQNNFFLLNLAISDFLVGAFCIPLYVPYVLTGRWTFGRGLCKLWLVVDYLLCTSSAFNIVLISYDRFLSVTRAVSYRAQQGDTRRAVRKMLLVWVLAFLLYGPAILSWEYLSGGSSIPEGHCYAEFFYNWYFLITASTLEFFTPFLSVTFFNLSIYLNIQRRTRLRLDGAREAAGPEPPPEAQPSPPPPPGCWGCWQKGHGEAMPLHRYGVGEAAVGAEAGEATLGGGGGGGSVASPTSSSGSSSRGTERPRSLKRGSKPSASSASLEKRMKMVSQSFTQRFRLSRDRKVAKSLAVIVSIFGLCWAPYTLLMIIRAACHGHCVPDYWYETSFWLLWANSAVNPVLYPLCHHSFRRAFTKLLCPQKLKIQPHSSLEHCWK
Chain of CYP2C9 (P11712 whole entry): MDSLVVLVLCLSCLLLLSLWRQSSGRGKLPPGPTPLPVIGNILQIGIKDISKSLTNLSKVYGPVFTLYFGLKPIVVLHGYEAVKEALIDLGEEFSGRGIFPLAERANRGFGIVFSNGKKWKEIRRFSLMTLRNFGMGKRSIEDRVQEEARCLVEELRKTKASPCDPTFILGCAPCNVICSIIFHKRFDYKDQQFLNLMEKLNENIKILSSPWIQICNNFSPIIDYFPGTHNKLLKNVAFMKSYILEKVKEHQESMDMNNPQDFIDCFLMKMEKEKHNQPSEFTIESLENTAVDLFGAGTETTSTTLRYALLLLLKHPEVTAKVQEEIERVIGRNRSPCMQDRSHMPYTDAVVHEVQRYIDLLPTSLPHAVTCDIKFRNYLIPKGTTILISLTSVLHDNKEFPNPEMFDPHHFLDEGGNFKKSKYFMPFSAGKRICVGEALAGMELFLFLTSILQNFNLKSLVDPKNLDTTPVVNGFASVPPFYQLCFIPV

CC(C)N1CCC(c2ccc(-c3ccc(C(=O)N4CCCC4)cc3)cn2)CC1.Cl.Cl [Example 11, [4-(1′-Isopropyl-1′,2′,3′,4′,5′,6′-hexahydro-[2,4′]bipyridinyl-5-yl)phenyl]pyrrolidin-1-ylmethanone]
Open cage schedule-fed rat model, dose 15 mg/kg p.o., food intake at 3 h (rat): 85.9 % of vehicle
Feed. Inhib. rat [Response 3 h] (rat): 85.9%
IC50 (CYP2C9): > 25 µM
Ki (Human H3): 0.026 µM
inhibition at 10 µM (hERG): 19%
IC50 (CYP1A): > 25 µM
IC50 (CYP3A4): > 25 µM
IC50 (CYP2D6): > 25 µM
IC50 (CYP2C19): > 25 µM

Cc1cc(-c2ccc(CC3CCN(C4CCC4)CC3)nc2)ccn1.Cl.Cl [Example 29, 6-(1-Cyclobutylpiperidin-4-ylmethyl)-2′-methyl-[3,4′]bipyridinyl]
Open cage schedule-fed rat model, dose 15 mg/kg p.o., food intake at 3 h (rat): 74.4 % of vehicle
Feed. Inhib. rat [Response 3 h] (rat): 74.4%
IC50 (CYP2C9): > 25 µM
Ki (Human H3): 0.0084 µM
inhibition at 10 µM (hERG): 7%
IC50 (CYP1A): > 25 µM
IC50 (CYP3A4): > 25 µM
IC50 (CYP2D6): > 25 µM
IC50 (CYP2C19): > 25 µM

CC(C)N1CCN(Cc2ccc(-c3ccc(C(=O)N(C)C)cc3)cn2)CC1.Cl.Cl [Example 42, 4-[6-(4-Isopropylpiperazin-1-ylmethyl)pyridin-3-yl]-N,N-dimethylbenzamide]
Open cage schedule-fed rat model, dose 15 mg/kg p.o., food intake at 3 h (rat): 87.8 % of vehicle
Feed. Inhib. rat [Response 3 h] (rat): 87.8%
IC50 (CYP2C9): > 25 µM
Ki (Human H3): 0.017 µM
inhibition at 10 µM (hERG): 7%
IC50 (CYP1A): > 25 µM
IC50 (CYP3A4): > 25 µM
IC50 (CYP2D6): > 25 µM
IC50 (CYP2C19): > 25 µM

— patent US8344001B2, “Heterocyclic H3 antagonists” (High Point Pharmaceuticals, LLC, priority 2007, dated 2013)
